# pIC50: −log10 of the molar value.
# Assay: Compound was evaluated for its inhibition of LPS-induced mouse B-lymphocyte proliferation
# Assay type: functional
row,SMILES,pIC50
1,Cc1cc(C)c2oc(-c3ccc(-c4ccc(C(=O)O)cc4)[nH]3)cc2c1C,8.66

# Assay: Inhibition of LPS-induced mouse B-lymphocyte proliferation. The result is expressed as relative IC50 i.e., IC50 of compound/all-trans retinoic acid IC50.
# Assay type: functional
row,SMILES,Relative IC50
1,CCCc1cccc2cc(-c3ccc(-c4ccc(C(=O)O)s4)[nH]3)sc12,600
2,Cc1ccc(C)c2oc(-c3ccc(-c4ccc(C(=O)O)cc4Br)[nH]3)cc12,18
3,Cc1ccc(C)c2oc(-c3ccc(-c4ccc(C(=O)O)cc4F)[nH]3)cc12,15
4,Cc1ccc(C)c2oc(-c3ccc(-c4cccc(C(=O)O)c4)[nH]3)cc12,2100
5,COc1cc(C(=O)O)ccc1-c1ccc(-c2cc3c(Cl)ccc(Cl)c3o2)[nH]1,210
6,O=C(O)c1ccc(-c2ccc(-c3cc4c(Cl)ccc(Cl)c4o3)[nH]2)c(Cl)c1,240
7,O=C(O)c1ccc(-c2ccc(-c3cc4c(Cl)ccc(Cl)c4o3)[nH]2)c(Br)c1,45
8,O=C(O)c1ccc(-c2ccc(-c3cc4ccc5ccccc5c4o3)[nH]2)c(Br)c1,1500
9,Cc1ccc(C)c2oc(-c3ccc(-c4ccc(C(=O)O)s4)[nH]3)cc12,42
10,CCc1ccc(OC)c2cc(-c3ccc(-c4ccc(C(=O)O)cc4Br)[nH]3)oc12,140
11,Cc1cc(C)c2oc(-c3ccc(-c4ccc(C(=O)O)cc4Br)[nH]3)cc2c1C,42
12,Cc1ccc(Cl)c2sc(-c3ccc(-c4ccc(C(=O)O)s4)[nH]3)cc12,480
13,Cc1ccc(Cl)c2oc(-c3ccc(-c4ccc(C(=O)O)cc4Br)[nH]3)cc12,16
14,O=C(O)c1ccc(-c2ccc(-c3cc4cccc(Cl)c4o3)[nH]2)c(Cl)c1,300
15,O=C(O)c1ccc(-c2ccc(-c3cc4c(Cl)ccc(Cl)c4o3)[nH]2)s1,62
16,Cc1cc(C)c2oc(-c3ccc(-c4ccc(C(=O)O)s4)[nH]3)cc2c1C,230
17,O=C(O)c1ccc(-c2ccc(-c3cc4cccc(Cl)c4o3)[nH]2)c(F)c1,95
18,COc1cc(C(=O)O)ccc1-c1ccc(-c2cc3cccc(Cl)c3o2)[nH]1,170
19,O=C(O)c1ccc(-c2ccc(-c3cc4c(Cl)ccc(Cl)c4o3)[nH]2)c(F)c1,64
20,O=C(O)c1ccc(-c2ccc(-c3cc4cccc(Cl)c4o3)[nH]2)c(Br)c1,31
21,Cc1ccc(C)c2oc(-c3ccc(-c4ccc(C(=O)O)cc4Cl)[nH]3)cc12,23
22,COc1cc(C(=O)O)ccc1-c1ccc(-c2cc3c(C)ccc(C)c3o2)[nH]1,47
23,CC1=C(/C=C/C(C)=C/C=C/C(C)=C/C(=O)O)C(C)(C)CCC1 [TRETINOIN],1

# Assay: Compound was evaluated for its inhibition of LPS-induced mouse B-lymphocyte proliferation. The result is expressed as relative IC50 i.e., IC50 of compound / All Trans Retinoic Acid IC50
# Assay type: functional
row,SMILES,Relative IC50
1,O=C(O)c1ccc(-c2ccc(-c3cc4c(Cl)ccc(Cl)c4o3)[nH]2)cc1,1.3
2,Cc1ccc(C)c2oc(-c3ccc(-c4ccc(C(=O)O)cc4)[nH]3)cc12,0.76
3,CC1=C(/C=C/C(C)=C/C=C/C(C)=C/C(=O)O)C(C)(C)CCC1 [TRETINOIN],0.65

# Assay: Inhibition of LPS-induced mouse B-lymphocyte proliferation in relation to IC50 of all-trans retinoic acid.
# Assay type: functional
row,SMILES,Relative IC50
1,CCc1ccc(OC)c2cc(-c3ccc(-c4ccc(C(=O)O)o4)[nH]3)oc12,>1000
2,O=C(O)c1ccc2cc(-c3ccc(-c4cc5c(Cl)ccc(Cl)c5s4)[nH]3)ccc2c1,>1000
3,O=C(O)c1ccc(-c2ccc(-c3cc4cc(Cl)ccc4o3)[nH]2)s1,>1000
4,CCCc1ccc(OC)c2cc(-c3ccc(-c4ccc(C(=O)O)o4)[nH]3)oc12,>1000
5,Cc1cc(-c2ccc(-c3cc4cc(Cl)cc(Cl)c4o3)[nH]2)c(C)cc1C(=O)O,>1000
6,O=C(O)c1ccc(-c2ccc(-c3cc4cc(Cl)ccc4o3)[nH]2)c2ccccc12,>1000
7,O=C(O)c1ccc(-c2ccc(-c3cc4c(Cl)ccc(Cl)c4s3)[nH]2)c2ccccc12,>1000
8,CCc1ccc(OC)c2cc(-c3ccc(-c4ccc(C(=O)O)s4)[nH]3)oc12,>1000
9,CCc1ccc(OC)c2cc(-c3ccc(-c4ccc(C(=O)O)c5ccccc45)[nH]3)oc12,>1000
10,Cc1ccc(Cl)c2sc(-c3ccc(-c4ccc(C(=O)O)c5ccccc45)[nH]3)cc12,>1000
11,Cc1ccc(Cl)c2oc(-c3ccc(-c4ccc5cc(C(=O)O)ccc5c4)[nH]3)cc12,>1000
12,CCCc1ccc(OC)c2cc(-c3ccc(-c4cc(C)c(C(=O)O)cc4C)[nH]3)oc12,>1000
13,CCCc1cccc2cc(-c3ccc(-c4ccc5cc(C(=O)O)ccc5c4)[nH]3)oc12,>1000
14,CCCc1ccc(OC)c2cc(-c3ccc(-c4ccc(C(=O)O)s4)[nH]3)oc12,>1000
15,Cc1ccc(C)c2oc(-c3ccc(-c4ccc(C(=O)O)c5ccccc45)[nH]3)cc12,>1000
16,CCc1ccc(OC)c2cc(-c3ccc(-c4cc(C)c(C(=O)O)cc4C)[nH]3)oc12,>1000

row,SMILES,Relative IC50
1,Cc1ccc(C)c2oc(-c3ccc(-c4ccc(C(=O)O)o4)[nH]3)cc12,>1000
2,O=C(O)c1ccc(-c2ccc(-c3cc4cc(Cl)ccc4o3)[nH]2)o1,>1000
3,Cc1ccc(C)c2oc(-c3ccc(-c4ccc5cc(C(=O)O)ccc5c4)[nH]3)cc12,>1000
4,Cc1cc(C)c2oc(-c3ccc(-c4ccc(C(=O)O)c5ccccc45)[nH]3)cc2c1C,>1000
5,CCCc1cccc2cc(-c3ccc(-c4cc(C)c(C(=O)O)cc4C)[nH]3)oc12,>1000
6,O=C(O)c1cccc(-c2ccc(-c3cc4cccc(Cl)c4s3)[nH]2)c1,>1000
7,Cc1cc(-c2ccc(-c3cc4c(C)c(C)cc(C)c4o3)[nH]2)c(C)cc1C(=O)O,>1000
8,CCCc1ccc(OC)c2cc(-c3ccc(-c4ccc(C(=O)O)c5ccccc45)[nH]3)oc12,>1000
9,CCCc1ccc(OC)c2cc(-c3ccc(-c4ccc5cc(C(=O)O)ccc5c4)[nH]3)oc12,>1000
10,CCc1ccc(OC)c2cc(-c3ccc(-c4ccc5cc(C(=O)O)ccc5c4)[nH]3)oc12,>1000
11,Cc1cc(C)c2oc(-c3ccc(-c4ccc5cc(C(=O)O)ccc5c4)[nH]3)cc2c1C,>1000
12,CCCc1cccc2cc(-c3ccc(-c4ccc(C(=O)O)c5ccccc45)[nH]3)sc12,>1000
13,CCCc1cc(OC)cc2cc(-c3ccc(-c4cc(C)c(C(=O)O)cc4C)[nH]3)oc12,>1000
14,Cc1cc(-c2ccc(-c3cc4cc(Cl)ccc4o3)[nH]2)c(C)cc1C(=O)O,>1000
15,Cc1cc(-c2ccc(-c3cc4c(C)ccc(C)c4o3)[nH]2)c(C)cc1C(=O)O,>1000
16,Cc1cc(C)c2oc(-c3ccc(-c4ccc(C(=O)O)o4)[nH]3)cc2c1C,>1000

# From ChEMBL document CHEMBL1135843, “A library construction of 2,5-disubstituted pyrrole compounds by using solid/solution-phase syntheses” (Bioorg Med Chem Lett, 2002)
